For 2 molecules, Km results are on record in article PMC11676671, “Simultaneous Down-Regulation of Dominant Cinnamoyl CoA Reductase and Cinnamyl Alcohol Dehydrogenase Dramatically Altered Lignin Content in Mulberry” (Plants, 2024).

For this test, the system named is T1, MaCCR1.
T1 construct: full-length CDS in pET-28a, His-tagged, expressed in E. coli BL21(DE3)
Put plainly: absorbance decrease of substrate, microplate reader, non-linear fit. It counts as biochemical, Morus alba. The source says: absorbance decrease of substrate, microplate reader, non-linear fit on MaCCR1

As for `COc1cc(/C=C/C(=O)SCCNC(=O)CCNC(=O)[C@H](O)C(C)(C)COP(=O)(O)OP(=O)(O)OC[C@H]2O[C@@H](n3cnc4c(N)ncnc43)[C@H](O)[C@@H]2OP(=O)(O)O)ccc1O` [feruloyl CoA], the Km (pH and temperature of the kinetic assay not printed (optimum pH 6.0, 20 °C with feruloyl CoA)) is 62.6 µM.

As for `COc1cc(/C=C/C(=O)SCCNC(=O)CCNC(=O)[C@H](O)C(C)(C)COP(=O)(O)OP(=O)(O)OC[C@H]2O[C@@H](n3cnc4c(N)ncnc43)[C@H](O)[C@@H]2OP(=O)(O)O)cc(OC)c1O` [sinapyl-CoA], the Km (pH and temperature of the kinetic assay not given) stood at 160 µM.

The term Km denotes the concentration of substrate that gives half-maximal velocity.
